Results: PubChem BioAssay (NCI)
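GI50: concentration for 50% inhibition of growth. TGI denotes the concentration required for complete inhibition of growth.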

Legend:
Assay in all cases: growth of human tumour cells (NCI), 384-well format
786-0 renal = tested on: 786-0 renal
HCC-2998 colon = tested on: HCC-2998 colon
HCT-116 colon = tested on: HCT-116 colon
HCT-15 colon = tested on: HCT-15 colon
HS 578T breast = tested on: HS 578T breast
HT29 colon = tested on: HT29 colon
K-562 leukemia = tested on: K-562 leukemia
NCI-H226 lung = tested on: NCI-H226 lung
SK-MEL-28 melanoma = tested on: SK-MEL-28 melanoma
SK-MEL-5 melanoma = tested on: SK-MEL-5 melanoma
SK-OV-3 ovarian = tested on: SK-OV-3 ovarian
U251 glioblastoma = tested on: U251 glioblastoma
UACC-62 melanoma = tested on: UACC-62 melanoma

SMILES: CC(=O)OC1C(C)OC(Oc2c(-c3ccc(O)cc3)oc3cc(O)cc(O)c3c2=O)C(O)C1OC(C)=O (stereo unspecified)
- GI50 ([…]-0 renal): 62 µM
- TGI (786-0 renal): > 100 µM
- GI50 (HCC-2998 colon): 38.7 µM
- TGI (HCC-2998 colon): > 100 µM
- GI50 (HCT-116 colon): 39.2 µM
- TGI (HCT-116 colon): > 100 µM
- GI50 (HCT-15 colon): 87.7 µM
- TGI (HCT-15 colon): > 100 µM
- GI50 (HS 578T breast): 21.5 µM
- TGI (HS 578T breast): 62.4 µM
- GI50 (HT29 colon): 63.6 µM
- TGI (HT29 colon): > 100 µM
- GI50 (K-562 leukemia): 34.4 µM
- TGI (K-562 leukemia): > 100 µM
- GI50 (NCI-H226 lung): 34.2 µM
- TGI (NCI-H226 lung): > 100 µM
- GI50 (SK-MEL-28 melanoma): 32.2 µM
- TGI (SK-MEL-28 melanoma): > 100 µM
- GI50 (SK-MEL-5 melanoma): 32.5 µM
- TGI (SK-MEL-5 melanoma): > 100 µM
- GI50 (SK-OV-3 ovarian): 46.3 µM
- TGI (SK-OV-3 ovarian): > 100 µM
- GI50 (U251 glioblastoma): 46.4 µM
- TGI (U251 glioblastoma): > 100 µM
- GI50 (UACC-62 melanoma): 23.1 µM
- TGI (UACC-62 melanoma): 63.6 µM
